Laboratory results taken from patent US8729030B2 (Affymax, Inc., priority 2003, dated 2014).
Bridges are numbered along the chain shown (N, C = ends). Where no end group is shown, it is not given here. [ ]: non-standard residue; d: D form. 1Nal = N[C@@H](Cc1cccc2ccccc12)C(=O)O; Sar = CNCC(=O)O

How the values were obtained:
[1] = system: human, bone marrow derived CD34+ cells; test: C/BFU-e assay (erythroid colony formation); format: cell-based; conditions: Table 2; colonies 90% of maximum relative to EPO control, 14 days
Source text: EPO-R signaling stimulates the differentiation of bone marrow stem cells into proliferating red blood cell presursors. This assay measures the ability of test peptides to stimulate the proliferation and differentiation of red blood cell precursors from primary human bone marrow pluripotent stem cells.
For this assay, serial dilutions of test peptide are made in IMDM medium (Gibco) supplemented with 10% FBS (Hyclone). […] The methylcellulose and peptide mixture is then vortexed thoroughly. Aliquots (100,000 cells/mL) of human, bone marrow derived CD34+ cells (Poietics/Cambrex) are thawed. The thawed cells are gently added to 0.1 mL of 1 mg/ml DNAse (Stem Cells) in a 50 mL tube. Next, 40-50 mL IMDM medium is added gently to cells: the medium is added drop by drop along the side of the 50 mL tube for the first 10 mL, and then the remaining volume of medium is slowly dispensed along the side of the tube. The cells are then spun at 900 rpm for 20 min, and the media removed carefully by gentle aspiration. The cells are resuspended in 1 ml of IMDM medium and the cell density per mL is counted on hemacytometer slide (10 μL aliquot of cell suspension on slide, and cell density is the average count×10,000 cells/ml). The cells are then diluted in IMDM medium to a cell density of 15,000 cells/mL. A 100 μL of diluted cells is then added to each 1.5 mL methyl cellulose plus peptide sample (final cell concentration in assay media is 1000 cells/mL), and the mixture is vortexed. Allow the bubbles in the mixture to disappear, and then aspirate 1 mL using blunt-end needle. Add 0.25 mL aspirated mixture from each sample into each of 4 wells of a 24-well plate (Falcon brand). Incubate the plated mixtures at 37° C. under 5% CO2 in a humid incubator for 14 days. Score for the presence of erythroid colonies using a phase microscope (5×-10× objective, final magnification of 100×).
EPO-R signaling stimulates the differentiation of bone marrow stem cells into proliferating red blood cell precursors. […]

[2] = molecular target: chimeric receptor comprising the extra-cellular portion of the human EPO receptor to the intra-cellular portion of the human GCSF receptor; test: Reporter assay (Baf3/EpoR/GCSFR fos/lux luciferase); format: cell-based; conditions: Table 2; Baf3/EpoR/GCSFR fos/lux cells, 4 h
Source text: This assay is based upon a on a murine pre-B-cell line derived reporter cell, Baf3/EpoR/GCSFR fos/lux. This reporter cell line expresses a chimeric receptor comprising the extra-cellular portion of the human EPO receptor to the intra-cellular portion of the human GCSF receptor. This cell line is further transfected with a fos promoter-driven luciferase reporter gene construct. Activation of this chimeric receptor through addition of erythropoietic agent results in the expression of the luciferase reporter gene, and therefore the production of light upon addition of the luciferase substrate luciferin. Thus, the level of EPO-R activation in such cells may be quantitated via measurement of luciferase activity.
The Baf3/EpoR/GCSFR fos/lux cells are cultured in DMEM/F12 medium (Gibco) supplemented with 10% fetal bovine serum (FBS; Hyclone), 10% WEHI-3 supernatant (the supernatant from a culture of WEHI-3 cells, ATCC #TIB-68), and penicillin/streptomycin. […] Following a 5-minute incubation, light emission is measured on a Packard Topcount Luminometer (Packard Instrument Co., Downers Grove, Ill.). Light counts are plotted relative to test peptide concentration and analysed using Graph Pad software. The concentration of test peptide that results in a half-maximal emission of light is recorded as the EC50 [See Table 2: Reporter EC50]. […]

EPO-R = molecular target: T1, EPO-R (Homo sapiens, UniProt P19235); test: Competitive binding assay (AlphaQuest bead proximity, AQ); conditions: Table 2; competition with biotinylated EPO-R-binding peptide tracer
T1 construct: made in house; host or cells: Chinese Hamster Ovary cells
T1 sequence (P19235 25-250 limits assumed): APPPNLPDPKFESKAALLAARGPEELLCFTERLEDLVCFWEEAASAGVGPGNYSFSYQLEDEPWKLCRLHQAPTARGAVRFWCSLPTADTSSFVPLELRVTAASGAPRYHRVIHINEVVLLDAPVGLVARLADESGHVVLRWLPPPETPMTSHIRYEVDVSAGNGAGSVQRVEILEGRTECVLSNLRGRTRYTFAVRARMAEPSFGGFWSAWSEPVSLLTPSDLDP
Source text: Competitive binding calculations are made using an assay in which a light signal is generated as a function of the proximity of two beads: a streptavidin donor bead bearing a biotinylated EPO-R-binding peptide tracer and an acceptor bead to which is bound EPO-R. Light is generated by non-radiative energy transfer, during which a singlet oxygen is released from a first bead upon illumination, and contact with the released singlet oxygen causes the second bead to emit light. These bead sets are commercially available (Packard). Bead proximity is generated by the binding of the EPO-R-binding peptide tracer to the EPO-R. A test peptide that competes with the EPO-R-binding peptide tracer for binding to EPO-R will prevent this binding, causing a decrease in light emission.
In more detail the method is as follows: Add 4 μL of serial dilutions of the test EPO-R agonist peptide, or positive or negative controls, to wells of a 384 well plate. Thereafter, add 2 μL/well of receptor/bead cocktail. […]
Centrifuge 1 min to mix. […] After 18 hours read light emission using an AlphaQuest reader (Packard). […]

peptide dimer of monomers (AcG)GLYACHMGPIT(1-nal)VCQPLR(MeG) (SEQ ID NO: 3) [Peptide III] (Ac-GGLYACHMGPIT[1Nal]VCQPLR[Sar]; disulfide 6-15 (inferred); not fully specified (residue 1); printed as (AcG)GLYACHMGPIT(1-nal)VCQPLR(MeG); also: homodimer, dimer linkage not given here)
EC90 [1]: 2.7 nM
EC50 [2]: 0.15 nM

peptide dimer of monomers (AcG)GLYACHMGPIT(1-nal)VCQPLR(MeG) (SEQ ID NO: 3) [Peptide II] (Ac-GGLYACHMGPIT[1Nal]VCQPLR[Sar]; disulfide 6-15 (inferred); not fully specified (residue 1); printed as (AcG)GLYACHMGPIT(1-nal)VCQPLR(MeG); also: homodimer, dimer linkage not given here)
EC90 [1]: 2.2 nM
IC50 (EPO-R): 0.11 nM
